In PMC6151437, “Antibacterial Synthetic Peptides Derived from Bovine Lactoferricin Exhibit Cytotoxic Effect against MDA-MB-468 and MDA-MB-231 Breast Cancer Cell Lines” (Molecules : A Journal of Synthetic Chemistry and Natural …, 2017):
≈ marks a conversion by molar mass, not a printed value. Read-outs that look alike come from different tables or passages of the source. Bridge positions count the residues as written; N and C are the ends. Square brackets hold non-standard residues; d marks the D form. Peptide text beside a SMILES is read from it. I, II: the chains in the order shown. Ahx = NCCCCCC(=O)O

Legend:
S. aureus ATCC 25923 = test system: S. aureus ATCC 25923; set-up: method as in ref 15, 25, 26 = [15]; PMID 25815317; doi:10.1155/2015/453826; 15. León M.A. Leal A.L. Almanzar G. Rosas J.E. García J.E. Rivera Z.J. Antibacterial activity of synthetic peptides derived from Lactoferricin against Escherichia coli ATCC 25922 and Enterococcus faec || [25]; PMID 28613262; doi:10.3390/molecules22060987; 25. Huertas N.J. Monroy Z.J.R. Medina R.F. Castañeda J.E.G. Antimicrobial Activity of Truncated and Polyvalent Peptides Derived from the FKCRRWQWRMKKGLA Sequence against Escherichia coli ATCC 25922 an || [26]; PMID 28287494; doi:10.3390/molecules22030452; 26. Huertas Méndez N.J. Vargas Casanova Y. Gómez Chimbi A.K. Hernández E. Leal Castro A.L. Melo Diaz J.M. Rivera Monroy Z.J. García Castañeda J.E. Synthetic Peptides Derived from Bovine Lactoferricin; conditions: cited from earlier work
E. coli ATCC 25922 [1] = format: cell-based
Protocol: (§1) The minimal inhibitory concentration (MIC) was determined using a microdilution assay. In brief, bacterial strains were incubated for 18 to 24 h at 37 °C in an Muller Hinton broth (MHB) until an optical density of 0.15 to 0.30 (620 nm) was obtained. 90 µL of MHB was mixed with 90 µL of peptide (440 µg/mL), and using a 96-well microtiter plate peptide, serial dilution (200, 100, 50, 25, 12.5, and 6.2 µg/mL) was performed. 10 µL of inoculum (2 × 10^6 CFU/mL) was added to each well. Final volume in each well was 100 µL. Then they were incubated for 24 h at 37 °C, and the absorbance at 620 nm was measured using an Asys Expert Plus ELISA reader. For determining the minimum bactericidal concentration (MBC), a small sample was taken from each well using an inoculation loop, which was then spread on MHA plates and incubated overnight at 37 °C. […] Each of these tests was performed twice (n = 2).

E. coli ATCC 11775 [2] = format: cell-based
Protocol: as §1

[3] = test system: S. enteriditis ATCC 13076; set-up: method as in ref 15, 25, 26 = [15]; PMID 25815317; doi:10.1155/2015/453826; 15. León M.A. Leal A.L. Almanzar G. Rosas J.E. García J.E. Rivera Z.J. Antibacterial activity of synthetic peptides derived from Lactoferricin against Escherichia coli ATCC 25922 and Enterococcus faec || [25]; PMID 28613262; doi:10.3390/molecules22060987; 25. Huertas N.J. Monroy Z.J.R. Medina R.F. Castañeda J.E.G. Antimicrobial Activity of Truncated and Polyvalent Peptides Derived from the FKCRRWQWRMKKGLA Sequence against Escherichia coli ATCC 25922 an || [26]; PMID 28287494; doi:10.3390/molecules22030452; 26. Huertas Méndez N.J. Vargas Casanova Y. Gómez Chimbi A.K. Hernández E. Leal Castro A.L. Melo Diaz J.M. Rivera Monroy Z.J. García Castañeda J.E. Synthetic Peptides Derived from Bovine Lactoferricin; conditions: cited from earlier work
E. coli ATCC 11775 [4] = test system: E. coli ATCC 11775; set-up: method as in ref 15, 25, 26 = [15]; PMID 25815317; doi:10.1155/2015/453826; 15. León M.A. Leal A.L. Almanzar G. Rosas J.E. García J.E. Rivera Z.J. Antibacterial activity of synthetic peptides derived from Lactoferricin against Escherichia coli ATCC 25922 and Enterococcus faec || [25]; PMID 28613262; doi:10.3390/molecules22060987; 25. Huertas N.J. Monroy Z.J.R. Medina R.F. Castañeda J.E.G. Antimicrobial Activity of Truncated and Polyvalent Peptides Derived from the FKCRRWQWRMKKGLA Sequence against Escherichia coli ATCC 25922 an || [26]; PMID 28287494; doi:10.3390/molecules22030452; 26. Huertas Méndez N.J. Vargas Casanova Y. Gómez Chimbi A.K. Hernández E. Leal Castro A.L. Melo Diaz J.M. Rivera Monroy Z.J. García Castañeda J.E. Synthetic Peptides Derived from Bovine Lactoferricin; conditions: cited from earlier work
E. coli ATCC 25922 [5] = test system: E. coli ATCC 25922; set-up: method as in ref 15, 25, 26 = [15]; PMID 25815317; doi:10.1155/2015/453826; 15. León M.A. Leal A.L. Almanzar G. Rosas J.E. García J.E. Rivera Z.J. Antibacterial activity of synthetic peptides derived from Lactoferricin against Escherichia coli ATCC 25922 and Enterococcus faec || [25]; PMID 28613262; doi:10.3390/molecules22060987; 25. Huertas N.J. Monroy Z.J.R. Medina R.F. Castañeda J.E.G. Antimicrobial Activity of Truncated and Polyvalent Peptides Derived from the FKCRRWQWRMKKGLA Sequence against Escherichia coli ATCC 25922 an || [26]; PMID 28287494; doi:10.3390/molecules22030452; 26. Huertas Méndez N.J. Vargas Casanova Y. Gómez Chimbi A.K. Hernández E. Leal Castro A.L. Melo Diaz J.M. Rivera Monroy Z.J. García Castañeda J.E. Synthetic Peptides Derived from Bovine Lactoferricin; conditions: cited from earlier work

## N=C(N)NCCC[C@H](NC(=O)[C@H](Cc1c[nH]c2ccccc12)NC(=O)[C@H](CCC(N)=O)NC(=O)[C@H](Cc1c[nH]c2ccccc12)NC(=O)[C@H](CCCNC(=N)N)NC(=O)[C@@H](N)CCCNC(=N)N)C(=O)NCCCC[C@H](NC(=O)[C@H](CCCNC(=N)N)NC(=O)[C@H](Cc1c[nH]c2ccccc12)NC(=O)[C@H](CCC(N)=O)NC(=O)[C@H](Cc1c[nH]c2ccccc12)NC(=O)[C@H](CCCNC(=N)N)NC(=O)[C@@H](N)CCCNC(=N)N)C(=O)NCCCCCC(=O)N[C@@H](CSSC[C@H](NC(=O)CCCCCNC(=O)[C@H](CCCCNC(=O)[C@H](CCCNC(=N)N)NC(=O)[C@H](Cc1c[nH]c2ccccc12)NC(=O)[C@H](CCC(N)=O)NC(=O)[C@H](Cc1c[nH]c2ccccc12)NC(=O)[C@H](CCCNC(=N)N)NC(=O)[C@@H](N)CCCNC(=N)N)NC(=O)[C@H](CCCNC(=N)N)NC(=O)[C@H](Cc1c[nH]c2ccccc12)NC(=O)[C@H](CCC(N)=O)NC(=O)[C@H](Cc1c[nH]c2ccccc12)NC(=O)[C@H](CCCNC(=N)N)NC(=O)[C@@H](N)CCCNC(=N)N)C(N)=O)C(N)=O [LfcinB (20–25)4] (I: H-RRWQWRK[Ahx]C-NH2 / II: H-RRWQWRK[Ahx]C-NH2 / III: H-RRWQWR / IV: H-RRWQWR; amide I:7-III:C, II:7-IV:C; disulfide I:9-II:9)
S. aureus ATCC 25923
  MIC: 25 µM (≈ 115 µg/mL)
E. coli ATCC 25922 [1]; ATCC 25922
  Antibacterial Effect MBC: 22 µM
E. coli ATCC 25922 [1]; ATCC 25922, 24 h
  Antibacterial Effect MIC: 22 µM
E. coli ATCC 25922 [1]; E. coli ATCC 25922, microdilution in MHB, 24 h at 37 °C, absorbance 620 nm, n = 2
  Antibacterial Effect MIC: 100 µg/mL
E. coli ATCC 25922 [1]; E. coli ATCC 25922, plated on MHA overnight at 37 °C, no bacterial growth, n = 2
  Antibacterial Effect MBC: 100 µg/mL
E. coli ATCC 11775 [2]; ATCC 11775
  Antibacterial Effect MBC: 44 µM
E. coli ATCC 11775 [2]; ATCC 11775, 24 h
  Antibacterial Effect MIC: 22 µM
E. coli ATCC 11775 [2]; E. coli ATCC 11775, microdilution in MHB, 24 h at 37 °C, absorbance 620 nm, n = 2
  Antibacterial Effect MIC: 100 µg/mL
E. coli ATCC 11775 [2]; E. coli ATCC 11775, plated on MHA overnight at 37 °C, no bacterial growth, n = 2
  Antibacterial Effect MBC: 200 µg/mL
[3]
  MIC: 44 µM (≈ 202 µg/mL)
E. coli ATCC 11775 [4]
  MIC: 5.5 µM (≈ 25.3 µg/mL)
E. coli ATCC 25922 [5]
  MIC: 4.4 µM (≈ 20.2 µg/mL)
